Laboratory results taken from article PMC6511944 (Journal of Medicinal Chemistry, 2019).
Entries after “also recorded” stand apart in the source; their conditions may differ.

Tests used:
NO production = test: nitric oxide; format: cell-based, murine; details: RAW 264.7 cells, 0.2, 1 and 5 μM, LPS/IFNγ 10 ng/mL of each
[1] = test system: lipid peroxidation in RAW 264.7 cells; test: lipid peroxidation by BODIPY 581/591 C11 staining and FACS in RAW 264.7 cells; format: cell-based, murine; details: 5 μM, LPS/IFNγ 10 ng/mL of each, 24 h
RAW 264.7 macrophages = test: protection of RAW 264.7 macrophages from LPS-induced cytotoxicity; details: LPS 100 μg/mL, MTS assay
iNOS = format: cell-based, murine; details: 5 μM, RAW 264.7 macrophages activated by LPS and IFNγ (10 ng/mL of each)
NF-κB = test: RAW-Blue NF-κB reporter gene assay; format: cell-based, murine; details: RAW-Blue macrophages, 0.2, 1 and 5 μM, LPS/IFNγ 10 ng/mL of each
15-LOX-1 = biological target: T1, 15-LOX-1 (Homo sapiens, UniProt P16050); format: biochemical
T1 sequence (P16050 1-662): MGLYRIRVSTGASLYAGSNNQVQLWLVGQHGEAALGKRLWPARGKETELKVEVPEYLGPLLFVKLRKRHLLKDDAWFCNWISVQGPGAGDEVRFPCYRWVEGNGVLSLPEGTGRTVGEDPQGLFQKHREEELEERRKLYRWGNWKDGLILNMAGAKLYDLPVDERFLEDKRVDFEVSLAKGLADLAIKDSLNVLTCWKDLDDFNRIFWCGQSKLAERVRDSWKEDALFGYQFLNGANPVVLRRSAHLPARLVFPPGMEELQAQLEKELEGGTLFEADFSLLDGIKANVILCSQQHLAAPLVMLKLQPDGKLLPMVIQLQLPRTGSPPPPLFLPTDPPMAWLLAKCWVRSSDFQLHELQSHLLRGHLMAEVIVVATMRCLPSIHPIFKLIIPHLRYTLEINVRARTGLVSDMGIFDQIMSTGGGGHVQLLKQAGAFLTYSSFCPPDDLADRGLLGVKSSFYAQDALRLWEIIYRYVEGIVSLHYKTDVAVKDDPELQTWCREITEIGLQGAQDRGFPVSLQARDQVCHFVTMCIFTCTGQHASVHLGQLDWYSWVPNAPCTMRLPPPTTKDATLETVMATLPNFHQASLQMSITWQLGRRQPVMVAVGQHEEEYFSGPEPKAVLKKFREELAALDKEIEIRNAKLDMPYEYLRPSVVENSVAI

Question: CCOC(=O)c1[nH]c2cc(Cl)ccc2c1/C=C/C(=O)NCc1ccccc1OC [Compound 9c, Ethyl (E)-6-Chloro-3-(3-((2-methoxybenzyl)amino)-3-oxoprop-1-en-1-yl)-1H-indole-2-carboxylate] was tested. Which “inhibition of NO production (total nitrate/nitrite)” value (NO production) did it give?
Answer: dose-dependent inhibition

Question: And the “effect on the boost of lipid peroxides” value ([1]; listed as 9c (i472))?
Answer: significantly attenuated; also recorded: clear reduction back to baseline levels

Question: And the “effect on viability of LPS-treated RAW 264.7 macrophages, in words” value (“effect on viability” below) (RAW 264.7 macrophages)?
Answer: stronger, dose-dependent effects

Question: What about the “downregulation of iNOS gene expression” value (iNOS) of the same compound?
Answer: approximately 50%

Question: And the “inhibition of NF-κB transcriptional activation” value (NF-κB)?
Answer: significant but not complete inhibition

Question: With CCCNC(=O)c1[nH]c2cc(Cl)ccc2c1CN(C)C [Compound 13, 6-Chloro-3-((dimethylamino)methyl)-N-propyl-1H-indole-2-carboxamide] as the compound, how does the “potency against 15-LOX-1, in words” value (15-LOX-1) read?
Answer: complete loss in potency

Question: How did the “effect on viability” value (RAW 264.7 macrophages) turn out when CCOC(=O)c1[nH]c2cc(Cl)ccc2c1C(=O)C[C@@H](C)CCCC(C)C [Eleftheriadis-14d] was run?
Answer: comparably improved the viability

Question: Which “effect on the boost of lipid peroxides” value [1] does the source give for c1ccc2c(c1)SCc1c-2[nH]c2ccccc12 [PD-146176, reference compound] here?
Answer: significantly attenuated

Question: For CC(c1cc2ccccc2s1)N(O)C(N)=O (stereo not drawn) [Zileuton], which “effect on viability” value (RAW 264.7 macrophages) is on record?
Answer: comparably improved the viability
